Experimental data as given in patent US9328369B2, “Process for production of useful substance, and surfactant for use in the process” (priority 2009, dated 2016).

Legend:
Escherichia coli (α) = assay: Screening of secretion efficiency, alkaline phosphatase expressing strain; type: cell-based; conditions: surfactant 1 wt %; 37° C., 1 hour; ELISA, anti-His-tag antibody
From the text: An alkaline phosphatase (phoA) gene of an Escherichia coli strain W3110 was amplified by the PCR method using primers 1 and 2 (Table 4). After being treated with restriction enzymes NdeI and BamHI, a PCR fragment was bound with an NdeI restriction enzyme site and with a BamHI restriction enzyme site of a pET-22b plasmid (product of Novagen). Then, the plasmid was transformed into an AG1 (DE3) Escherichia coli strain formed by transforming an Escherichia coli strain AG1 (product of TOYOBO Co., LTD.) with use of a λDE3 Lysogenization Kit (product of Novagen). In this manner, an alkaline phosphatase expressing strain (a) was formed.
A pdxA gene of an Escherichia coli strain W3110 was amplified by the PCR method using primers 5 and 6 (Table 4). After being treated with restriction enzymes NdeI and BamHI, a PCR fragment was bound to an NdeI restriction enzyme site and a BamHI restriction enzyme site of a pET-22b plasmid (product of Novagen). Then, the plasmid was transformed into an AG1 (DE3) Escherichia coli strain to form a PdxA expressing strain (γ).
In this manner, culture solutions were prepared.
(2) The strains were collected using a centrifuge (4,000 G, 4° C., 15 minutes). Each of the collected Escherichia coli strains was resuspended in 1 mL of a TB culture solution (product of Difco) and chloramphenicol (30 mg/L) and IPTG (100 μM) were added thereto. Shake culture at 37° C. for 3 hours induced expression of phoA, torA, and pdxA.
(3) Subsequently, harvesting using a centrifuge was carried out again (4,000 G, 4° C., 15 minutes). Each of the collected Escherichia coli strains was resuspended in 2.5 mL of a Tris-NaCl buffer solution (50 mM Tris (pH 7.5), 100 mM NaCl). The resulting solution was divided into 25-μL portions at a time to be mixed with 25 μL of a Tris-NaCl buffer solution.
(4) Then, the solution was allowed to stand at 37° C. for 1 hour. The supernatant solution was collected and diluted in a Tris-NaCl buffer solution to a proper concentration. Here, the quantification of the recombinant protein in the resulting solution was carried out by ELISA assay with use of an anti-His-tag antibody. The sample prior to the centrifugation in the process (3) was treated with ultrasonic waves (200 W, 10 minutes) and the quantification of the recombinant protein therein was similarly carried out by ELISA assay with use of an anti-His-tag antibody. The ratio of lysed bacteria was obtained with use of Escherichia coli (γ), and the secretion efficiencies of the recombinant proteins of Escherichia coli (α) and (β) were calculated by using the following formula. […] Secretion efficiency (%)=100×{(X/Y)−Z}.
In the formula, “X” represents the amount of the recombinant protein in the culture solution after removal of bacterial cells by centrifugation in the case of using Escherichia coli (α) or (β).
“Y” represents the amount of the whole recombinant protein in the culture solution in the case of using Escherichia coli (α) or (β).
“Z” represents the ratio of lysed bacteria obtained with use of Escherichia coli (γ), which is determined by the following formula: Z=Z1/Z2.
In the formula, “Z1” represents the amount of the recombinant protein in the culture solution which remains after removal of bacterial cells by centrifugation in the case of using Escherichia coli (γ).
“Z2” represents the amount of the whole recombinant protein in the culture solution in the case of using Escherichia coli (γ).
Escherichia coli (α) and (β) were each cultured in the same manner as in the above case except that polyoxyethylene (3 mol) tridecyl ether sodium acetate as the surfactant (A) was added right after the resuspension of the Escherichia coli in the buffer solution in the process (3) of A-0, in an amount of 1% by weight on the basis of the weight of the suspension of the bacterium. The secretion efficiency was calculated according to the above-mentioned definition.

Shewanella putrefaciens = assay: Production by secretion in microbial culture system, Shewanella (Table 6); type: cell-based; conditions: surfactant 1 wt %; for Dried cell density: after 48 hours culturing; for Quantitative value of produced recombinant protein: supernatant, protein band around 45 kDa, SDS-PAGE
Protocol: An overnight culture solution (10 ml) of Shewanella putrefaciens was prepared and inoculated in 1 L of a culture solution (10 g of polypeptone (Nihon Pharmaceutical Co., Ltd.), 2 g of yeast extract (Nihon Pharmaceutical Co., Ltd.), 0.5 g of magnesium sulfate heptahydrate, 750 mL of Seawater (Daigo)) and was shake-cultured at 30° C. for 5 hours. In this manner a pre-culture solution was prepared. The pre-culture solution was inoculated in 10 L of a culture solution (200 g of polypeptone (Nihon Pharmaceutical Co., Ltd.), 40 g of yeast extract (Nihon Pharmaceutical Co., Ltd.), 10 g of magnesium sulfate heptahydrate, 7.5 L of Seawater (Daigo)). Culturing thereof was initiated with use of a microbial culture system (ABLE Corporation), while the pH value and the temperature were maintained at 7.3 and 30° C. After 48 hours from the initiation of culturing, the culture solution was recovered and centrifuged. The whole protein of the obtained supernatant fragment was analyzed by SDS-PAGE and the protein band around 45 kDa was quantified.
The dried cell density when the culturing is terminated was determined by the following processes (1) to (5):
The dried cell density was determined by assigning the measuring results in the process (5) and the process (1) and the volume (L) of the culture solution used in the process (2) to the following formula: Dried cell density (g/L)=([measuring result in process (5)]−[measuring result in process (1)])/0.1.
The same processes as in Comparative Example 5 were carried out except that, after culturing in the microbial culture system was initiated, the surfactant A-14 was added to the culture solution in an amount of 1% by weight on the basis of the weight of the culture solution.
The same processes as in Comparative Example 5 were carried out except that, after culturing in the microbial culture system was initiated, the surfactant A-7 was added to the culture solution in an amount of 1% by weight on the basis of the weight of the culture solution.

Molecule | Secretion efficiency (%) Escherichia coli (α) (Escherichia coli (α)) | Dried cell density (Shewanella putrefaciens) | Quantitative value of produced recombinant protein (Shewanella putrefaciens)
Cured palm oil fatty acid amidopropyl dimethyl aminoacetate betaine [A-6] | 87.6% |  | 
CCCCCCCCCCCCCCCC[N+](C)(C)C.[Cl-] [A-14, Cetyl trimethyl ammonium chloride] | 37.8% | 0.23 g/L | <0.01 g/L
Polyoxyethylene(3 mol)tridecyl ether sodium acetate [A-1] | 100.0% |  | 
Sodium cocaminopropionate [A-7] | 85.0% | 2.32 g/L | 0.04 g/L
